Reference: patent US20260130845A1, “KETAMINE NASAL SPRAY FORMULATION AND METHODS OF USE” (INESKET LLC, priority 2024, published 2026)

Columns and labels:
[1] = Open-label absolute bioavailability and pharmacokinetic study of intranasal ketamine in healthy volunteers; format: in vivo, human; settings: hydro-alcoholic composition, minimum-maximum
Procedure: This was an open-label study in 25 healthy volunteers. Subjects received single doses of ketamine by intravenous (IV) injection (20 mg), intramuscular (IM) injection (20 mg), or intranasal (IN) administration (20 mg, 40 mg and 80 mg).
Blood samples for the measurement of plasma concentrations of (R)- and (S)-ketamine and (R)- and (S)-norketamine were collected pre-dose and at 0.033, 0.083, 0.167, 0.25, 0.333, 0.5, 0.75, 1, 1.25, 2, 2.5, 3, 4, 6, 8, 12, 16, and 24 hours post-dose for each study period.
All estimates for the parent and metabolite were consistent within each formulation or dose for the racemate, (R)-, and (S)-enantiomers. After IN administration, the estimates were slightly higher for the metabolite than the parent.

[2] = acidic pH near 4.5
Text: A Buffer may be used to control the pH of the nasal spray solution at, or near 4.5. […] Also, the local pH value inside the nasal cavity directly influences the rate and extent of drug absorption. […] Additionally, maintaining pH at or above 4.0 helps to reduce local nasal tract irritation. The buffer is optional.

| SMILES | AUC(0-1 hr) ([1]; dose 20 mg) | AUC(0-4 hr) ([1]; dose 20 mg) | Tmax ([1]; dose 20 mg) [min] | AUC(0-1 hr) ([1]; dose 40 mg) | AUC(0-4 hr) ([1]; dose 40 mg) | Tmax ([1]; dose 40 mg) [min] | AUC(0-1 hr) ([1]; dose 10 mg) | AUC(0-4 hr) ([1]; dose 10 mg) | Tmax ([1]; dose 10 mg) [min] | stability of solutions [2] |
| --- | --- | --- | --- | --- | --- | --- | --- | --- | --- | --- |
| CNC1(c2ccccc2Cl)CCCCC1=O (racemic) [(RS)-Ketamine, 2-(2-chlorophenyl)-2-(methylamino)-cyclohexanone] | 28.7-127 hr′ ng/mL | 60.0-209 hr′ ng/mL | 4.98 to 30 | 71.4-225 hr′ ng/mL | 160-433 hr′ ng/mL | 10 to 30 | – | – | – | – |
| CN[C@]1(c2ccccc2Cl)CCCCC1=O [(S)-Ketamine] | 30.9-96.7 hr′ ng/mL | 66.9-181 hr′ ng/mL | 10 to 30 | – | – | – | 12.8-55.8 hr′ ng/mL | 26.4-90.4 hr′ ng/mL | 5 to 20 | – |
| CNC1(c2ccccc2Cl)CCCCC1=O.Cl (centres unmarked) [Es/ketamine HCl] | – | – | – | – | – | – | – | – | – | better stability |
| CN[C@@]1(c2ccccc2Cl)CCCCC1=O [(R)-Ketamine] | 40.5-129 hr′ ng/mL | 93.0-251 hr′ ng/mL | – | – | – | – | 15.9-70.8 hr′ ng/mL | 33.6-118 hr′ ng/mL | – | – |
